In assay [1] the target is T1, Cytoplasmic tyrosine-protein kinase BMX (Homo sapiens) (UniProt P51813).
T1 sequence (whole entry): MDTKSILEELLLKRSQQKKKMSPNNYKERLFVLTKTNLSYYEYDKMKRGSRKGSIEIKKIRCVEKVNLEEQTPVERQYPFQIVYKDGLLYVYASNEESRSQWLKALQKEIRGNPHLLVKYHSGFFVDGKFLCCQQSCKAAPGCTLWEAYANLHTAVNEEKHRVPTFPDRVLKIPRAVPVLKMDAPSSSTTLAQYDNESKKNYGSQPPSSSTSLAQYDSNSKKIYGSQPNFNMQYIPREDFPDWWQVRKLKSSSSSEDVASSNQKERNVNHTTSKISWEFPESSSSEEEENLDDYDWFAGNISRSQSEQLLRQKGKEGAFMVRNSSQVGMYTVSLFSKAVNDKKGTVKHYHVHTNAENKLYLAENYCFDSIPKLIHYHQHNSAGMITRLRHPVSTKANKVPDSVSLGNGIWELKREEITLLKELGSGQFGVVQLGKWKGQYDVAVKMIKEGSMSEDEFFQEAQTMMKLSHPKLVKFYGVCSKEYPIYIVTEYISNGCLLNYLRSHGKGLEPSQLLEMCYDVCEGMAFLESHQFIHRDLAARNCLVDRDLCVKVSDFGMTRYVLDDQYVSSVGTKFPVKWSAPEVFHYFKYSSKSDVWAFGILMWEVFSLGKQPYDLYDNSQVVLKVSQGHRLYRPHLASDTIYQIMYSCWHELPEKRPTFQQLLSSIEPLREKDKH
The experiment in a line: Inhibition of human BMX at 500 nM by HotSpot assay relative to control.

Assay [2] deals with Cyclin-dependent kinase 4/cyclin D1 (Homo sapiens) (UniProt P11802+P24385). The experiment in a line: Inhibition of human CDK4/cyclin D1 at 500 nM by HotSpot assay relative to control. The class given is protein-complex assay.
Assay [3] addresses T2, Ephrin type-B receptor 2 (Homo sapiens) (UniProt P29323).
T2 sequence (whole entry): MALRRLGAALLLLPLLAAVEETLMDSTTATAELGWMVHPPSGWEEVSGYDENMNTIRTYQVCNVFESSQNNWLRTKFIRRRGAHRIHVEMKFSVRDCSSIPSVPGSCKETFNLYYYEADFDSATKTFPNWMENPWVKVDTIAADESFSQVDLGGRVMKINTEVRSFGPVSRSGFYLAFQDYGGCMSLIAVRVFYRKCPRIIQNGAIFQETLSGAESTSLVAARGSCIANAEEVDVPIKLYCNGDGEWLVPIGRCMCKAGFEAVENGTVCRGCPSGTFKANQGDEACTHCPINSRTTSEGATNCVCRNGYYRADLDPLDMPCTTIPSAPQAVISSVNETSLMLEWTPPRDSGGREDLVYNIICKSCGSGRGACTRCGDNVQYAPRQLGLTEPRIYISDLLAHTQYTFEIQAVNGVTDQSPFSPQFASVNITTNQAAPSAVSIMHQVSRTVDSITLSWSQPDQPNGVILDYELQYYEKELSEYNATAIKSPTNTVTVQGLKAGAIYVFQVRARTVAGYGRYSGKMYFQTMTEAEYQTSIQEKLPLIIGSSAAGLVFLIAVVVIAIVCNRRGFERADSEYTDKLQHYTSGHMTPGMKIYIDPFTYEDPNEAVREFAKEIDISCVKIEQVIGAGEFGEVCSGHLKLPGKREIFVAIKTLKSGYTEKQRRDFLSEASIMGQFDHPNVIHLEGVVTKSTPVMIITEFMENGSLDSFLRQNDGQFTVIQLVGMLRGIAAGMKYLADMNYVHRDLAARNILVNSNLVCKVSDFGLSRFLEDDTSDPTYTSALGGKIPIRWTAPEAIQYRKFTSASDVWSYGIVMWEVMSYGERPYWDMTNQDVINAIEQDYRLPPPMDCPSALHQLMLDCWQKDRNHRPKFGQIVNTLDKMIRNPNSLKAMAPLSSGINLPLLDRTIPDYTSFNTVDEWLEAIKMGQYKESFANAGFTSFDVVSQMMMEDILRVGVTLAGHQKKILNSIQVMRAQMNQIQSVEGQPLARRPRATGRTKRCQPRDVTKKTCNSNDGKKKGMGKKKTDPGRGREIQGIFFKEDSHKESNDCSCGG
The experiment in a line: Inhibition of human EPHB2 at 500 nM by HotSpot assay relative to control.

Assay [4] addresses Ephrin type-B receptor 4 (Homo sapiens) (UniProt P54760). In words: Inhibition of human EPHB4 at 500 nM by HotSpot assay relative to control.
The target in assay [5] is T3, cGMP-dependent protein kinase 2 (Homo sapiens) (UniProt Q13237).
T3 sequence (whole entry): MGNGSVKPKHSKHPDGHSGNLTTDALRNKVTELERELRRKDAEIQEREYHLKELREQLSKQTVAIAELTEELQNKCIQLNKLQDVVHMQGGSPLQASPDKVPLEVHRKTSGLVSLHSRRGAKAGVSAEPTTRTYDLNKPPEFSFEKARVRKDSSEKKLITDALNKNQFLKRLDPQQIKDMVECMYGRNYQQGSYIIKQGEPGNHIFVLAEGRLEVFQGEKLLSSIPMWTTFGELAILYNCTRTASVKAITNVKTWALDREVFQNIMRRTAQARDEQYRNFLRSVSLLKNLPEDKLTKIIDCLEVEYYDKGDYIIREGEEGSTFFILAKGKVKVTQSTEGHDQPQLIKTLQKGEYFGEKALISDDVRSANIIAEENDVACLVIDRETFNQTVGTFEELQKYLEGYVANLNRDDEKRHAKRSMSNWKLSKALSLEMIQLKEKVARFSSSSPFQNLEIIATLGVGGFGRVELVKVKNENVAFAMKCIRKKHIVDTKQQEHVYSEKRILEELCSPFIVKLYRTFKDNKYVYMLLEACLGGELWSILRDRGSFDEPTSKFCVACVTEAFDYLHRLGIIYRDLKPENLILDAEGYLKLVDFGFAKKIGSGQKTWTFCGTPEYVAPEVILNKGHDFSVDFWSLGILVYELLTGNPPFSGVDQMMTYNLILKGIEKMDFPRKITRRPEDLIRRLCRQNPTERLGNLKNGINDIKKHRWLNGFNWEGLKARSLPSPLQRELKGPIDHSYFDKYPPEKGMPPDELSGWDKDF
In words: Inhibition of human PRKG2 at 500 nM by HotSpot assay relative to control.

One may read the inhibition as the change of the read-out against control, counted positive when it falls.

Ephrin type-B receptor 4 (Homo sapiens), sequence (P54760 whole entry): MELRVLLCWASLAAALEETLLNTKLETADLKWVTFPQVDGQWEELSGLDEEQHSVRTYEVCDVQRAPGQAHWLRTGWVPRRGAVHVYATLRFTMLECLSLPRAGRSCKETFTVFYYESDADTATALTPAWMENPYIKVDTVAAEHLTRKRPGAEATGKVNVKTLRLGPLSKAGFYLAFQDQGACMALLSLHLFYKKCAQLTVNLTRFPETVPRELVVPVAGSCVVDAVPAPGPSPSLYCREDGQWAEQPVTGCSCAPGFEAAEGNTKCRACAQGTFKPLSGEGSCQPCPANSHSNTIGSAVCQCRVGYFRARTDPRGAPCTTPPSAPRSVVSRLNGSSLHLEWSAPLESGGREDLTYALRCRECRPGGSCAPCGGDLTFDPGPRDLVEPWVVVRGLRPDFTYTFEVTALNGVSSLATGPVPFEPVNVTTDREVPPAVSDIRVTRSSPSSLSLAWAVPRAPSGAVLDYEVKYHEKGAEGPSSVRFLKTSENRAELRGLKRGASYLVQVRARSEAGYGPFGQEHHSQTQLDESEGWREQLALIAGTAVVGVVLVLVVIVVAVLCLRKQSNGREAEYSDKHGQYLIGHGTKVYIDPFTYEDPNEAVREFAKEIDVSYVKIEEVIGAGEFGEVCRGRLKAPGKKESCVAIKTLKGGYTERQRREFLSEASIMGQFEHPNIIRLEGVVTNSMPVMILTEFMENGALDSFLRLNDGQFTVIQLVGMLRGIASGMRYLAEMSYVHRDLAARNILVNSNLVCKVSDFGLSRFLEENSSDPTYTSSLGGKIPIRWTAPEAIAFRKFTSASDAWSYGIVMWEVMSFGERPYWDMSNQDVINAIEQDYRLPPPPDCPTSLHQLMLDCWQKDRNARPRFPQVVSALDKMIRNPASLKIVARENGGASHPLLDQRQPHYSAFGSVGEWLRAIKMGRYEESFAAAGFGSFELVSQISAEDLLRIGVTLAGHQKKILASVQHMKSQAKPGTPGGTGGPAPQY

On to `Oc1n[nH]c2nnc(-c3c(-c4ccccc4)nn4ccccc34)cc12`, for which the inhibition came to 6.43% in assay [1]; 1.57% in assay [2]; 5.22% in assay [3]; 2.91% in assay [4]; 1.76% in assay [5].

As for `Nc1n[nH]c2nnc(-c3c(-c4ccccc4)nn4ccccc34)cc12`, the inhibition in assay [1] is 15.6%; in assay [2], 10.8%; in assay [3] it was 6.94%; in assay [4], 1.54%; in assay [5], -3.62%.

(Values after ChEMBL document CHEMBL5653615 (J Biol Chem, 2013).)
